Laboratory results from patent US9914733B2, “Biisoquinoline compounds and methods of treatment” (UNIVERSITY OF FLORIDA RESEARCH FOUNDATION, priority 2014, dated 2018).
Read-outs that look alike come from different tables or passages of the source.

Legend:
BT474 cells = assay: Clonogenic cell growth inhibition assay, BT474; format: cell-based; conditions: Homo sapiens, BT-474; BT474 triple-positive breast cancer cells; 48 h treatment, colonies counted after additional 10 days; read-out: IC50, drug concentration required for 50% growth inhibition
Experimental: (§1) The following human breast cancer cell lines were used in these studies: (a) Triple-positive: BT474, MCF7 and T47D, (b) Triple-negative: MDA-MB231 and MDA-MB468. Cells were grown in the following medium at 37° C. under a humidified atmosphere of 5% CO2: DMEM (BT474 cells), RPMI (MCF7 and T47D cells) and MEM (MDA-MB231 and MDA-MB468 cells). For each cell line, the medium was supplemented with 10% fetal bovine serum (Hyclone, Logan, Utah) 100 U/ml of penicillin, and 100 μg/ml of streptomycin.
(§2) Cells were trypsinized and a single cell suspension was prepared. Cells were plated at a density of 5×10^2-1×10^3 cells in 60 mm tissue culture plates. After the attachment, cells were treated with different concentrations of biisoquinolines 1a-d for 48 h. After the treatment, medium containing drug was removed and supplemented with fresh medium. Cells were allowed to grow into colonies for additional 10 days. Colonies were fixed, stained with 0.3% (w/v) methylene blue, and excess of the dye was removed after washing with PBS. Colonies containing more than fifty cells were counted and the IC50 values, i.e., drug concentrations required for 50% growth inhibition of these cell lines were determined as described in our previous studies. [Balusu, R.; Jaiswal, A. S.; Armas, M. L.; Kundu, C. N.; Bloom L, B.; Narayan S. Biochemistry 2007, 46, 13961; Jaiswal, A, S.; Banerjee, S.; Panda, H.; Bulkini, C. D.; Izumi, T.; Sarkar, F. H.; Ostrov, D. A.; Narayan, S. Mol. Cancer Res. 2009, 7, 1973] The IC50 of each compound was determined from the survival curve using the SigmaPlot-10.0 software program.

MDA-MB231 cells = assay: Clonogenic cell survival / cell growth inhibition assay, MDA-MB231; format: cell-based, human; conditions: for IC50: 48 h treatment, colonies counted after additional 10 days, read-out: IC50, drug concentration required for 50% growth inhibition; for toxicity to cells (result in words): MDA-MB231 cells, clonogenic assay
Experimental: as §1, §2
6,6′,7,7′-tetramethoxy biisoquinoline-imidazolium 1a, as well as its precursor compounds, bisamide 3a, and diimine 4a, were tested for the growth inhibitory effect on MDA-MB-231 cells by using the clonogenic cell survival assay [Balusu, R.; Jaiswal, A. S.; Armas, M. L.; Kundu, C. N.; Bloom L, B.; Narayan S. Biochemistry 2007, 46, 13961; Jaiswal, A, S.; Banerjee, S.; Panda, H.; Bulkin, C. D.; Izumi, T.; Sarkar, F. H.; Ostrov, D. A.; Narayan, S. Mol. Cancer Res. 2009, 7, 1973]. […] Then, three other methoxylated biisoquinoline-imidazolium compounds (1b-d) were tested to probe the optimal methoxy substitution pattern.

MDA-MB468 cells = assay: Clonogenic cell growth inhibition assay, MDA-MB468; format: cell-based; conditions: Homo sapiens, MDA-MB-468; MDA-MB468 triple-negative breast cancer cells; 48 h treatment, colonies counted after additional 10 days; read-out: IC50, drug concentration required for 50% growth inhibition
Experimental: as §1, §2

MCF7 cells = assay: Clonogenic cell growth inhibition assay, MCF7; format: cell-based, human; conditions: for IC50: Homo sapiens, MCF7 triple-positive breast cancer cells, 48 h treatment, colonies counted after additional 10 days, read-out: IC50, drug concentration required for 50% growth inhibition
Experimental: as §1, §2

T47D cells = assay: Clonogenic cell growth inhibition assay, T47D; format: cell-based, human; conditions: for IC50: Homo sapiens, T47D triple-positive breast cancer cells, 48 h treatment, colonies counted after additional 10 days, read-out: IC50, drug concentration required for 50% growth inhibition
Experimental: as §1, §2

[1] = Homo sapiens, MDA-MB-231, MDA-MB231 triple-negative breast cancer cells
[2] = MDA-MB231 triple-negative breast cancer cells

IC50 (BT474 cells) [µM]	IC50 (MDA-MB468 cells) [µM]	IC50 (MCF7 cells) [µM]	IC50 (T47D cells) [µM]	fold higher IC50 than compound 1c (MCF7 cells; MCF7 cells, IC50 of noscapine relative to IC50 of 1c) [folds]	SMILES	IC50 (MDA-MB231 cells; [1]) [µM]	IC50 (MDA-MB231 cells; [2]) [µM]	toxicity to cells (result in words) (MDA-MB231 cells)	sensitivity of cells to the compound (result in words) (MCF7 cells; MCF7 cells, clonogenic assay)	sensitivity of cells to the compound (result in words) (T47D cells; T47D cells, clonogenic assay)	fold higher IC50 than compound 1c (MDA-MB231 cells; MDA-MB-231 cells, IC50 of noscapine relative to IC50 of 1c) [folds]
0.7	2.1	7.9	13.5	–	COc1ccc2c(c1OC)CCn1c[n+]3c(c1-2)-c1ccc(OC)c(OC)c1CC3 [1b, 3,3′,4,4′-tetramethoxy-5,6,8,9-tetrahydro-6a,7a-diazadibenzo[c,g]fluorenium]chloride]	18.2	14.2	–	–	–	–
0.3	1.8	1.3	1	–	COc1ccc2c(c1)CCn1c[n+]3c(c1-2)-c1ccc(OC)cc1CC3 [1c, 3,3′-dimethoxy-5,6,8,9-tetrahydro-6a,7a-diazadibenzo[c,g]fluorenium]chloride]	4.7	2.4	–	–	–	–
34.1	35.4	–	–	–	COc1cccc(CCNC(=O)C(=O)NCCc2cccc(OC)c2OC)c1OC [3b, N^1,N^2-bis(2,3-dimethoxyphenethyl)oxalamide]	–	–	did not show any cytotoxicity	resistant	resistant	–
–	–	57	–	44	COc1ccc2c(c1OC)C(=O)O[C@@H]2[C@H]1c2c(cc3c(c2OC)OCO3)CCN1C [noscapine, reference compound]	64	–	–	–	–	16

Continued, molecule first:

SMILES	IC50 (BT474 cells) [µM]	IC50 (MDA-MB468 cells) [µM]	IC50 (MCF7 cells) [µM]	IC50 (T47D cells) [µM]	fold higher IC50 than compound 1c (MCF7 cells; MCF7 cells, IC50 of noscapine relative to IC50 of 1c) [folds]	IC50 (MDA-MB231 cells; [1]) [µM]	IC50 (MDA-MB231 cells; [2]) [µM]	toxicity to cells (result in words) (MDA-MB231 cells)	sensitivity of cells to the compound (result in words) (MCF7 cells; MCF7 cells, clonogenic assay)	sensitivity of cells to the compound (result in words) (T47D cells; T47D cells, clonogenic assay)	fold higher IC50 than compound 1c (MDA-MB231 cells; MDA-MB-231 cells, IC50 of noscapine relative to IC50 of 1c) [folds]
COc1cc2c(cc1OC)-c1c3[n+](cn1CC2)CCc1cc(OC)c(OC)cc1-3 [1a, 2,2′,3,3′-tetramethoxy-5,6,8,9-tetrahydro-6a,7a-diazadibenzo[c,g]fluorenium]chloride]	3.1	2.6	35	34	–	19	20.8	–	–	–	–
COc1cc2c(c(OC)c1OC)CCn1c[n+]3c(c1-2)-c1cc(OC)c(OC)c(OC)c1CC3.[Cl-] [1d, 2,2′,3,3′,4,4′-hexamethoxy-5,6,8,9-tetrahydro-6a,7a-diazadibenzo[c,g]fluorenium]chloride]	–	–	–	–	–	–	–	did not show any toxicity	–	–	–
COc1cc2c(cc1OC)C(C1=NCCc3cc(OC)c(OC)cc31)=NCC2 [4a, 6,6′,7,7′-tetramethoxy-3,3′,4,4′-tetrahydro-1,1′-biisoquinoline]	–	–	–	–	–	–	–	non-toxic	–	–	–
